Test results taken from US9566254B2, “Inhibitors and methods of inhibiting bacterial and viral pathogens” (priority 2010, dated 2017).
Structures can show the parent of a compound that is named as a salt. Where two headings read alike, the source gives them in different places.

Columns and labels:
Assay in all cases: microbe, parasite or virus in culture
Format in all cases: cell-based
vaccinia virus = conditions: read-out: Avg Activity (VV)
Chlamydophila caviae = conditions: read-out: Avg Activity (C. Caviae)
La Crosse virus (LACV) = conditions: read-out: Avg Activity (LACV)

| Compound | EC50 (vaccinia virus; Orthopoxvirus vaccinia) [nM] | EC50 (Chlamydophila caviae; Chlamydia caviae, Vero) [nM] | EC50 (La Crosse virus (LACV); La Crosse virus, Vero) [nM] | EC50 (vaccinia virus) [nM] | EC50 (Chlamydophila caviae) [nM] | EC50 (La Crosse virus (LACV)) [nM] |
| --- | --- | --- | --- | --- | --- | --- |
| CC(C)(C)c1ccc(C(=O)NC(=S)Nc2cccc(Cl)c2)cc1 [Compound 52, 4-tert-butyl-N-[(3-chlorophenyl)-carbamothioyl]benzamide] | 1000 to 10000 | < 1000 | 1000 to 10000 |  |  |  |
| COc1cc(NC(=S)NC(=O)c2ccc(C(C)(C)C)cc2)ccc1NC(=S)c1ccccc1Cl [Compound 8, 4-tert-butyl-N-[[4-[(2-chlorobenzene-carbothioyl)amino]-3-methoxy-phenyl]-carbamothioyl]benzamide] | < 1000 | < 1000 | < 1000 |  |  |  |
| Cc1ccc(C(=O)NC(=S)Nc2ccc(NC(=O)c3ccc(C(C)(C)C)cc3)cc2)cc1 [Compound 41, N-[[4-[(4-tert-butylbenzoyl)amino]phenyl]carbamothioyl]-4-methyl-benzamide] | < 1000 | < 1000 | < 1000 |  |  |  |
| CC(C)(C)c1ccc(C(=O)NC(=S)Nc2ccccc2F)cc1 [Compound 61, 4-tert-butyl-N-[(2-fluorophenyl)carbamothioyl]-benzamide] | 1000 to 10000 | 1000 to 10000 | 1000 to 10000 |  |  |  |
| Cc1cccc(NC(=S)NC(=O)c2ccc(C(C)(C)C)cc2)c1C [Compound 54, 4-tert-butyl-N-[(2,3-dimethylphenyl)-carbamothioyl]benzamide] | 1000 to 10000 | < 1000 | 1000 to 10000 |  |  |  |
| Cc1ccc(C)c(NC(=S)NC(=O)c2ccc(C(C)(C)C)cc2)c1 [Compound 67, 4-tert-butyl-N-[(2,5-dimethylphenyl)-carbamothioyl]benzamide] | 1000 to 10000 | < 1000 | > 25000 |  |  |  |
| COc1cc(NC(=S)NC(=O)c2ccc(C(C)(C)C)cc2)ccc1N(C)c1ccccc1Cl [Compound 3, 4-tert-butyl-N-[[4-[(2-chlorophenyl)-methylamino]-3-methoxy-phenyl]-carbamothioyl]-benzamide] | < 1000 | < 1000 | < 1000 |  |  |  |
| CN(C)c1ccc(NC(=S)NC(=O)c2ccc(C(C)(C)C)cc2)c(Cl)c1 [Compound 22, 4-tert-butyl-N-[[2-chloro-4-(dimethylamino)phenyl]-carbamothioyl]benzamide hydrochloride] | 1000 to 10000 | < 1000 | 1000 to 10000 |  |  |  |
| COc1cc(NC(=S)NC(=O)c2ccc(C(C)(C)C)cc2)ccc1NC(=O)c1cccnc1 [Compound 30, N-[4-[(4-tert-butylbenzoyl)-carbamothioylamino]-2-methoxy-phenyl]pyridine-3-carboxamide] | 1000 to 10000 | < 1000 |  |  |  |  |
| COc1ccc(NC(=S)NC(=O)c2ccc(C(C)(C)C)cc2)cc1 [Compound 68, 4-tert-butyl-N-[(4-methoxyphenyl)-carbamothioyl]benzamide] | 1000 to 10000 | 1000 to 10000 | > 25000 |  |  |  |
| CNc1ccc(NC(=S)NC(=O)c2ccc(C(C)(C)C)cc2)c(Cl)c1 [Compound 5, 4-tert-butyl-N-[[2-chloro-4-(methylamino)phenyl]-carbamothioyl]benzamide hydrochloride] | < 1000 | < 1000 | < 1000 |  |  |  |
| COc1cc(NC(=S)NC(=O)c2ccc(C(C)(C)C)cc2)ccc1NS(=O)(=O)c1cccc2c(N(C)C)cccc12 [Compound 16, 4-tert-butyl-N-[[4-[[5-(dimethylamino)-1-naphthyl]sulfonylamino]-3-methoxy-phenyl]-carbamothioyl]benzamide] | 1000 to 10000 | < 1000 | 1000 to 10000 |  |  |  |
| CCC(=O)Nc1cccc(NC(=S)NC(=O)c2ccc(C(C)(C)C)cc2)c1 [Compound 62, 4-tert-butyl-N-[[3-(propanoylamino)phenyl]-carbamothioyl]benzamide] | 1000 to 10000 | 1000 to 10000 | 1000 to 10000 |  |  |  |
| N-[3-[(4-tert-butylbenzoyl)-carbamothioylamino]phenyl]-2-chloro-benzamide [Compound 74] |  |  |  | > 25000 | > 25000 | 1000 to 10000 |
| CC(C)(C)c1ccc(C(=O)NC(=S)Nc2ccc([N+](=O)[O-])cc2)cc1 [Compound 69, 4-tert-butyl-N-[(4-nitrophenyl)-carbamothioyl]benzamide] | 1000 to 10000 | > 25000 | > 25000 |  |  |  |
| CC(C)(C)c1ccc(C(=O)NC(=S)Nc2cc(Cl)ccc2Cl)cc1 [Compound 50, 4-tert-butyl-N-[(2,5-dichlorophenyl)-carbamothioyl]benzamide] | 1000 to 10000 | < 1000 | 1000 to 10000 |  |  |  |
| COc1cccc(NC(=S)NC(=O)c2ccc(C(C)(C)C)cc2)c1 [Compound 66, 4-tert-butyl-N-[(3-methoxyphenyl)-carbamothioyl]benzamide] | 1000 to 10000 | < 1000 | > 25000 |  |  |  |
| CC(C)(C)c1ccc(C(=O)NC(=S)Nc2ccc(Nc3ccncc3)cc2)cc1 [Compound 38, 4-tert-butyl-N-[[4-(4-pyridylamino)phenyl]-carbamothioyl]benzamide hydrochloride] | > 25000 | > 25000 | 1000 to 10000 |  |  |  |

| Compound | EC50 (vaccinia virus; Orthopoxvirus vaccinia) [nM] | EC50 (Chlamydophila caviae; Chlamydia caviae, Vero) [nM] | EC50 (La Crosse virus (LACV); La Crosse virus, Vero) [nM] | EC50 (vaccinia virus) [nM] | EC50 (Chlamydophila caviae) [nM] | EC50 (La Crosse virus (LACV)) [nM] |
| --- | --- | --- | --- | --- | --- | --- |
| CCS/C(=N\C(=O)c1ccc(C(C)(C)C)cc1)Nc1ccc(NC(=O)c2ccccc2Cl)c(OC)c1 [Compound 10, N-[4-[[(Z)—N-(4-tert-butylbenzoyl)-C-ethylsulfanyl-carbonimidoyl]amino]-2-methoxy-phenyl]-2-chloro-benzamide] | < 1000 | 1000 to 10000 | < 1000 |  |  |  |
| CCS/C(=N\C(=O)c1ccc(C(C)(C)C)cc1)Nc1ccccc1Cl [Compound 14, (NZ)-4-tert-butyl-N-[(2-chloroanilino)-ethylsulfanyl-methylene]benzamide] | 1000 to 10000 | < 1000 | < 1000 |  |  |  |
| COc1ccccc1NC(=S)NC(=O)c1ccc(C(C)(C)C)cc1 [Compound 51, 4-tert-butyl-N-[(2-methoxyphenyl)-carbamothioyl]benzamide] | 1000 to 10000 | < 1000 | 1000 to 10000 |  |  |  |
| CC(C)(C)c1ccc(C(=O)NC(=S)Nc2ccc(NC(=O)c3ccccc3Cl)c(O)c2)cc1 [Compound 2, N-[4-[(4-tert-butylbenzoyl)-carbamothioylamino]-2-hydroxy-phenyl]-2-chloro-benzamide] | < 1000 | < 1000 | < 1000 |  |  |  |
| CC(C)(C)c1ccc(C(=O)NC(=S)Nc2ccc(N)cc2)cc1 [Compound 60, N-[(4-aminophenyl)-carbamothioyl]-4-tert-butyl-benzamide] | 1000 to 10000 | < 1000 | 1000 to 10000 |  |  |  |
| COc1cc(NC(=S)NC(=O)c2ccc(C(C)(C)C)cc2)ccc1NC(=O)c1cccc(CN)c1 [Compound 27, 3-(aminomethyl)-N-[4-[(4-tert-butylbenzoyl)-carbamothioylamino]-2-methoxy-phenyl]benzamide hydrochloride] | 1000 to 10000 | < 1000 | > 25000 |  |  |  |
| COc1cc(NC(=S)NC(=O)c2ccc(C(C)(C)C)cc2)ccc1NC(=O)c1ccncc1 [Compound 31, N-[4-[(4-tert-butylbenzoyl)-carbamothioylamino]-2-methoxy-phenyl]pyridine-4-carboxamide] | 1000 to 10000 | < 1000 |  |  |  |  |
| COc1cc(NC(=S)NC(=N)c2ccc(C(C)(C)C)cc2)ccc1NC(=O)c1ccccc1Cl [Compound 23, N-[4-[(4-tert-butylbenzene-carboximidoyl)-carbamothioylamino]-2-methoxy-phenyl]-2-chloro-benzamide] | 1000 to 10000 | < 1000 | 1000 to 10000 |  |  |  |
| Cc1c(Cl)cccc1NC(=S)NC(=O)c1ccc(C(C)(C)C)cc1 [Compound 47, 4-tert-butyl-N-[(3-chloro-2-methyl-phenyl)-carbamothioyl]benzamide] | 1000 to 10000 | < 1000 | < 1000 |  |  |  |
| Cc1cccc(NC(=S)NC(=O)c2ccc(C(C)(C)C)cc2)c1Cl [Compound 19, 4-tert-butyl-N-[(2-chloro-3-methyl-phenyl)-carbamothioyl]benzamide] | 1000 to 10000 | < 1000 | 1000 to 10000 |  |  |  |
| Cc1cccc(NC(=S)NC(=O)c2ccc(C(C)(C)C)cc2)c1 [Compound 63, 4-tert-butyl-N-(m-tolylcarbamothioyl)-benzamide] | 1000 to 10000 | 1000 to 10000 | 1000 to 10000 |  |  |  |
| CC(C)(C)c1ccc(C(=O)NC(=S)Nc2ccc(N)cc2Cl)cc1 [Compound 4, N-[(4-amino-2-chloro-phenyl)carbamothioyl]-4-tert-butyl-benzamide hydrochloride] | < 1000 | < 1000 | < 1000 |  |  |  |
| CC(C)(C)c1ccc(C(=O)NC(=S)Nc2ccc(Nc3cccnc3)cc2)cc1 [Compound 36, 4-tert-butyl-N-[[4-(3-pyridylamino)phenyl]-carbamothioyl]benzamide hydrochloride] | 10000 to 25000 | < 1000 | > 25000 |  |  |  |
| Cc1cccc(Cl)c1NC(=S)NC(=O)c1ccc(C(C)(C)C)cc1 [Compound 13, 4-tert-butyl-N-[(2-chloro-6-methyl-phenyl)-carbamothioyl]benzamide] | 1000 to 10000 | < 1000 | < 1000 |  |  |  |
| CC(C)(C)c1ccc(C(=O)NC(=S)Nc2cccc(C(F)(F)F)c2Cl)cc1 [Compound 15, 4-tert-butyl-N-[[2-chloro-3-(trifluoromethyl)phenyl]-carbamothioyl]benzamide] | 1000 to 10000 | < 1000 | < 1000 |  |  |  |
| CC(C)(C)c1ccc(C(=O)NC(=S)Nc2cc(OC(F)(F)F)ccc2Cl)cc1 [Compound 29, 4-tert-butyl-N-[[2-chloro-5-(trifluoromethoxy)phenyl]-carbamothioyl]benzamide] | 1000 to 10000 |  | > 25000 |  |  |  |
| COc1cc(NC(=S)NC(=O)c2ccc(C(C)(C)C)cc2)ccc1NC(N)=O [Compound 37, 4-tert-butyl-N-[(3-methoxy-4-ureido-phenyl)carbamothioyl]-benzamide] | > 25000 |  | 1000 to 10000 |  |  |  |
